According to patent US20240366555A1, “SELECTIVE MTORC2 INHIBITOR AND USES THEREOF” (ALIAD BIOPHARMA, priority 2021, published 2024):
Where two headings read alike, the source gives them in different places.

Experiments:
mTORC2 = mTORC2 (Homo sapiens, UniProt P42345); assay: LocaTOR2 assay in A549 cells (FRB-AKT2 Ser473 phosphorylation); assay type: cell-based; parameters: endogenous in cells; host or cells: A549 (transfected only with the FKBP-recruiter and the FRB-AKT2 reporter); settings: for IC50: FIG. 9g
Source text: mTORC2 is located in the cell membrane, endosome, ER and mitochondrial membrane. mTORC2 forms an mTORC2 complex as an activated form of ras (ras-GTP) operates as a scaffold in the cell membrane, whereas it forms an mTORC2 complex as mLST8 operates as a scaffold in the endosome. By this difference, the mTORC2 inhibitory effect of norathyriol may be shown differently depending on the subcellular compartment where mTORC2 is located. In order to investigate the mTORC2 inhibitory effect of norathyriol depending on the subcellular compartment location, in vivo LocaTOR2 assay was performed (Ebner et al. (2017) J. Cell Biol. 216:343-353). After introducing FKBP-recruiter selectively located in the membrane of the subcellular compartment and FRB^T2098L-AKT2 which is an mTORC2 substrate, AP21967 was treated for 40 minutes to induce binding between the FKBP-recruiter and FRB-AKT2, and FRB-AKT2 was moved to a specific subcellular compartment. In addition, the degree of phosphorylation of Ser473 of FRB-Akt by mTORC2 located in the site thereof was investigated by immunoblot analysis.

[1] = system: mTORC2 signaling (Fox03a location); assay: Fox03a intracellular location by immunofluorescent staining in A549; assay type: cell-based, human; settings: A549 cells, treated for 3 hours; FIG. 7c
Source text: mTORC2 activates SGK3, and SGK3 phosphorylates Fox03a, allowing Fox03a to remain in the cytoplasm. When mTORC2 is inhibited, Fox03a is dephosphorylated and translocated to the nucleus, and in the nucleus, it binds to FHRE located in a gene promoter to induce gene expression. Therefore, the change in the intracellular location of Fox03a and FHRE dependent gene expression become indicators for evaluating mTORC2 activity. In order to evaluate the effect of norathyriol on the mTORC2 activity, norathyriol was treated to A549, and then the change in the intracellular location of Fox03a was investigated by immunofluorescent staining.
Specifically, the A549 cells of 1×10^5 were seeded in a confocal dish coated with 35 mm collagen and cultured for 1 day. After treating norathyriol, the cells were fixed with 4% paraformaldehyde at 4° C. for 15 minutes. After treating PBS containing 0.5% Triton X-100 (PBS-T) at a room temperature for 5 minutes for permeabilization, PBS containing 5% normal goat serum and 1% gelatin was treated at a room temperature for 30 minutes for blocking. The Fox03a antibody diluted in 1% BSA was treated at a room temperature for 1 hour. After washing the culture dish with PBS-T, an FITC conjugated anti-rabbit secondary antibody diluted in 1% BSA was treated at a room temperature for 50 minutes. […]

## O=c1c2cc(O)c(O)cc2oc2cc(O)cc(O)c12 [norathyriol, 1,3,6,7-tetrahydroxy-9H-xanthen-9-one]
mTORC2; A549, Bcl-XL-FKBP recruiter, FIG. 9e
  FRB-AKT2 Ser473 phosphorylation, mitochondria: reduced
mTORC2; A549, KRas4B^C30-FKBP recruiter, AP21967, norathyriol at 30 μM and 60 μM, FIG. 9a
  FRB-AKT2 Ser473 phosphorylation, mTORC2 located in cell membrane: not reduced
mTORC2; A549, Rab5-FKBP recruiter, FIG. 9b
  FRB-AKT2 Ser473 phosphorylation, mTORC2 located in early endosome: reduced at a significant level
mTORC2; A549, Rab7-FKBP recruiter, FIG. 9c
  FRB-AKT2 Ser473 phosphorylation, mTORC2 located in late endosome: reduced at a significant level
mTORC2; A549, Rab11-FKBP recruiter, FIG. 9d
  FRB-AKT2 Ser473 phosphorylation, mTORC2 located in recycling endosome: reduced at a significant level
mTORC2; A549, TcRb-FKBP recruiter, FIG. 9f
  FRB-AKT2 Ser473 phosphorylation, ER: reduced
mTORC2; mTORC2 located in cell membrane (plasma membrane), read-out: IC50, mTORC2, PM
  IC50: > 60 µM
mTORC2; mTORC2 located in early endosome, read-out: IC50, mTORC2, EE
  IC50: < 30 µM
mTORC2; mTORC2 located in late endosome, read-out: IC50, mTORC2, LE
  IC50: < 30 µM
mTORC2; mTORC2 located in recycling endosome, read-out: IC50, mTORC2, RE
  IC50: 40 µM
[1]
  intracellular location of Fox03a: moved to the nucleus
